From patent publication US12077503B2, “Substituted cyclic amides and their use as herbicides” (FMC CORPORATION, priority 2015, dated 2024)

Key:
Type in all cases: in vivo
[1] = tested on: velvetleaf (Abutilon theophrasti); assay: Test G Pre-Emergence Protocol; details: Abutilon theophrasti, pre-emergence, 312 h, evaluated after 13 days; for pest or weed control at 15.625 g/ha: 15.625 g ai/ha; for pest or weed control at 15.625 g/ha / pest or weed control at 250 g/ha: read-out: Velvetleaf damage rating (100=total damage to plant; 0=no damage to plant); for pest or weed control at 62.5 g/ha: 62.5 g ai/ha, 100=total damage to plant, 0=no damage to plant, read-out: plant damage rating, Velvetleaf; for pest or weed control at 250 g/ha: 250 g ai/ha
Summary of the method: (§1)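 Pots of seeds in standard soil were grown for one day in a glasshouse (24/16 °C day/night, 14 h light, 65% humidity), then sprayed with compound in acetone/water 50:50 with 0.5% Tween 20 at 15.625, 62.5 or 250 g/ha. Damage was scored after 13 days on a 0 (none) to 100 (total) scale.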

[2] = tested on: redroot pigweed (Amaranthus retroflexus); assay: Test G Pre-Emergence Protocol; details: Amaranthus retroflexus, pre-emergence, 312 h, evaluated after 13 days; for pest or weed control at 15.625 g/ha: 15.625 g ai/ha; for pest or weed control at 15.625 g/ha / pest or weed control at 250 g/ha: read-out: Pigweed, Redroot damage rating (100=total damage to plant; 0=no damage to plant); for pest or weed control at 62.5 g/ha: 62.5 g ai/ha, 100=total damage to plant, 0=no damage to plant, read-out: plant damage rating, Pigweed, Redroot; for pest or weed control at 250 g/ha: 250 g ai/ha
Summary of the method: as §1

[3] = tested on: corn (Zea mays); assay: Test G Pre-Emergence Protocol; details: Zea mays, pre-emergence, 312 h, evaluated after 13 days; for plant injury at 15.625 g/ha: 15.625 g ai/ha; for plant injury at 15.625 g/ha / plant injury at 250 g/ha: read-out: Corn damage rating (100=total damage to plant; 0=no damage to plant); for plant injury at 62.5 g/ha: 62.5 g ai/ha, 100=total damage to plant, 0=no damage to plant, read-out: plant damage rating, Corn; for plant injury at 250 g/ha: 250 g ai/ha
Summary of the method: as §1

[4] = tested on: giant foxtail (Setaria faberi); assay: Test G Pre-Emergence Protocol; details: Setaria faberi, pre-emergence, 312 h, evaluated after 13 days; for pest or weed control at 15.625 g/ha: 15.625 g ai/ha; for pest or weed control at 15.625 g/ha / pest or weed control at 250 g/ha: read-out: Foxtail, Giant damage rating (100=total damage to plant; 0=no damage to plant); for pest or weed control at 62.5 g/ha: 62.5 g ai/ha, 100=total damage to plant, 0=no damage to plant, read-out: plant damage rating, Foxtail, Giant; for pest or weed control at 250 g/ha: 250 g ai/ha
Summary of the method: as §1

[5] = tested on: barnyardgrass (Echinochloa crus-galli); assay: Test G Pre-Emergence Protocol; details: Echinochloa crus-galli, pre-emergence, 312 h, evaluated after 13 days; for pest or weed control at 15.625 g/ha: 15.625 g ai/ha, read-out: Barnyard grass damage rating (100=total damage to plant; 0=no damage to plant); for pest or weed control at 62.5 g/ha: 62.5 g ai/ha, 100=total damage to plant, 0=no damage to plant, read-out: plant damage rating, Barnyardgrass; for pest or weed control at 250 g/ha: 250 g ai/ha, read-out: Barnyardgrass damage rating (100=total damage to plant; 0=no damage to plant)
Summary of the method: as §1

[6] = tested on: ivy-leaved morning glory (Ipomoea hederacea); assay: Test G Pre-Emergence Protocol; details: Ipomoea, pre-emergence, 312 h, evaluated after 13 days; for pest or weed control at 15.625 g/ha: 15.625 g ai/ha, read-out: Morning-glory, Ivy-leaved damage rating (100=total damage to plant; 0=no damage to plant); for pest or weed control at 62.5 g/ha: 62.5 g ai/ha, 100=total damage to plant, 0=no damage to plant, read-out: plant damage rating, Morningglory, Ivy-leaved; for pest or weed control at 250 g/ha: 250 g ai/ha, read-out: Morningglory, Ivy-leaved damage rating (100=total damage to plant; 0=no damage to plant)
Summary of the method: as §1

[7] = tested on: velvetleaf (Abutilon theophrasti); assay: Test G Post-Emergence Protocol; details: Abutilon theophrasti, post-emergence, 312 h; for pest or weed control at 15.625 g/ha: 15.625 g ai/ha, evaluated after 13 days (100=total damage to plant; 0=no damage to plant), read-out: Velvetleaf damage rating; for pest or weed control at 62.5 g/ha: 62.5 g ai/ha, read-out: Velvetleaf damage rating (100=total damage to plant; 0=no damage to plant); for pest or weed control at 62.5 g/ha / pest or weed control at 250 g/ha: evaluated after 13 days; for pest or weed control at 250 g/ha: 250 g ai/ha, read-out: damage to plant, Velvetleaf (100=total damage to plant; 0=no damage to plant)
Summary of the method: (§2)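 Seedlings grown 8 days in soil in a glasshouse (24/16 °C day/night, 14 h light, 65% humidity) were sprayed post-emergence with compound in acetone/water 50:50 plus 0.5% Tween 20 at 15.625, 62.5 or 250 g/ha. Damage was scored after 13 days on a 0–100 scale (100 = total damage).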

[8] = tested on: redroot pigweed (Amaranthus retroflexus); assay: Test G Post-Emergence Protocol; details: Amaranthus retroflexus, post-emergence, 312 h; for pest or weed control at 15.625 g/ha: 15.625 g ai/ha, evaluated after 13 days (100=total damage to plant; 0=no damage to plant), read-out: Pigweed, Redroot damage rating; for pest or weed control at 62.5 g/ha: 62.5 g ai/ha, read-out: Pigweed, Redroot damage rating (100=total damage to plant; 0=no damage to plant); for pest or weed control at 62.5 g/ha / pest or weed control at 250 g/ha: evaluated after 13 days; for pest or weed control at 250 g/ha: 250 g ai/ha, read-out: damage to plant, Pigweed, Redroot (100=total damage to plant; 0=no damage to plant)
Summary of the method: as §2

[9] = tested on: corn (Zea mays); assay: Test G Post-Emergence Protocol; details: Zea mays, post-emergence, 312 h; for plant injury at 15.625 g/ha: 15.625 g ai/ha, evaluated after 13 days (100=total damage to plant; 0=no damage to plant), read-out: Corn damage rating; for plant injury at 62.5 g/ha: 62.5 g ai/ha, read-out: Corn damage rating (100=total damage to plant; 0=no damage to plant); for plant injury at 62.5 g/ha / plant injury at 250 g/ha: evaluated after 13 days; for plant injury at 250 g/ha: 250 g ai/ha, read-out: damage to plant, Corn (100=total damage to plant; 0=no damage to plant)
Summary of the method: as §2

[10] = tested on: giant foxtail (Setaria faberi); assay: Test G Post-Emergence Protocol; details: Setaria faberi, post-emergence, 312 h; for pest or weed control at 15.625 g/ha: 15.625 g ai/ha, evaluated after 13 days (100=total damage to plant; 0=no damage to plant), read-out: Foxtail, Giant damage rating; for pest or weed control at 62.5 g/ha: 62.5 g ai/ha, read-out: Foxtail, Giant damage rating (100=total damage to plant; 0=no damage to plant); for pest or weed control at 62.5 g/ha / pest or weed control at 250 g/ha: evaluated after 13 days; for pest or weed control at 250 g/ha: 250 g ai/ha, read-out: damage to plant, Foxtail, Giant (100=total damage to plant; 0=no damage to plant)
Summary of the method: as §2

[11] = tested on: barnyardgrass (Echinochloa crus-galli); assay: Test G Post-Emergence Protocol; details: Echinochloa crus-galli, post-emergence, 312 h; for pest or weed control at 15.625 g/ha: 15.625 g ai/ha, evaluated after 13 days (100=total damage to plant; 0=no damage to plant), read-out: Barnyardgrass damage rating; for pest or weed control at 62.5 g/ha: 62.5 g ai/ha, read-out: Barnyardgrass damage rating (100=total damage to plant; 0=no damage to plant); for pest or weed control at 62.5 g/ha / pest or weed control at 250 g/ha: evaluated after 13 days; for pest or weed control at 250 g/ha: 250 g ai/ha, read-out: damage to plant, Barnyardgrass (100=total damage to plant; 0=no damage to plant)
Summary of the method: as §2

[12] = tested on: ivy-leaved morning glory (Ipomoea hederacea); assay: Test G Post-Emergence Protocol; details: Ipomoea, post-emergence, 312 h; for pest or weed control at 15.625 g/ha: 15.625 g ai/ha, evaluated after 13 days (100=total damage to plant; 0=no damage to plant), read-out: Morningglory, Ivy-leaved damage rating; for pest or weed control at 62.5 g/ha: 62.5 g ai/ha, read-out: Morningglory, Ivy-leaved damage rating (100=total damage to plant; 0=no damage to plant); for pest or weed control at 62.5 g/ha / pest or weed control at 250 g/ha: evaluated after 13 days; for pest or weed control at 250 g/ha: 250 g ai/ha, read-out: damage to plant, Morningglory, Ivy-leaved (100=total damage to plant; 0=no damage to plant)
Summary of the method: as §2

Row | Structure (SMILES) | pest or weed control at 15.625 g/ha [1] [%] | pest or weed control at 62.5 g/ha [1] [%] | pest or weed control at 250 g/ha [1] [%] | pest or weed control at 15.625 g/ha [2] [%] | pest or weed control at 62.5 g/ha [2] [%] | pest or weed control at 250 g/ha [2] [%] | plant injury at 15.625 g/ha [3] [%] | plant injury at 62.5 g/ha [3] [%] | plant injury at 250 g/ha [3] [%] | pest or weed control at 15.625 g/ha [4] [%] | pest or weed control at 62.5 g/ha [4] [%] | pest or weed control at 250 g/ha [4] [%] | pest or weed control at 15.625 g/ha [5] [%] | pest or weed control at 62.5 g/ha [5] [%] | pest or weed control at 250 g/ha [5] [%] | pest or weed control at 15.625 g/ha [6] [%] | pest or weed control at 62.5 g/ha [6] [%] | pest or weed control at 250 g/ha [6] [%] | pest or weed control at 15.625 g/ha [7] [%] | pest or weed control at 62.5 g/ha [7] [%] | also measured
1 | CN1C[C@@H](c2ccc(C(F)(F)F)cc2)[C@H](C(=O)Nc2sccc2C#N)C1=O (racemic) [Compound 1520] | 0 | 0 | 0 | 0 | 0 | 30 | 0 | 0 | 0 | 20 | 60 | 80 | 20 | 50 | 90 | 0 | 0 | 0 | 0 | 0 | pest or weed control at 250 g/ha [7]: 10%; pest or weed control at 15.625 g/ha [8]: 0%; pest or weed control at 62.5 g/ha [8]: 0%; pest or weed control at 250 g/ha [8]: 10%; plant injury at 15.625 g/ha [9]: 0%; plant injury at 62.5 g/ha [9]: 0%; plant injury at 250 g/ha [9]: 20%; pest or weed control at 15.625 g/ha [10]: 0%; pest or weed control at 62.5 g/ha [10]: 30%; pest or weed control at 250 g/ha [10]: 70%; pest or weed control at 15.625 g/ha [11]: 0%; pest or weed control at 62.5 g/ha [11]: 30%; pest or weed control at 250 g/ha [11]: 60%; pest or weed control at 15.625 g/ha [12]: 10%; pest or weed control at 62.5 g/ha [12]: 30%; pest or weed control at 250 g/ha [12]: 40%
2 | CN1C[C@@H](c2ccc(C(F)(F)F)cc2)[C@H](C(=O)Nc2ccnc(F)c2)C1=O (racemic) [Compound 1529] | 0 | 0 | 0 | 0 | 0 | 0 | 0 | 0 | 0 | 0 | 0 | 0 | 0 | 0 | 0 | 0 | 0 | 0 | 0 | 0 | pest or weed control at 250 g/ha [7]: 0%; pest or weed control at 15.625 g/ha [8]: 0%; pest or weed control at 62.5 g/ha [8]: 0%; pest or weed control at 250 g/ha [8]: 0%; plant injury at 15.625 g/ha [9]: 0%; plant injury at 62.5 g/ha [9]: 0%; plant injury at 250 g/ha [9]: 0%; pest or weed control at 15.625 g/ha [10]: 0%; pest or weed control at 62.5 g/ha [10]: 0%; pest or weed control at 250 g/ha [10]: 0%; pest or weed control at 15.625 g/ha [11]: 0%; pest or weed control at 62.5 g/ha [11]: 0%; pest or weed control at 250 g/ha [11]: 0%; pest or weed control at 15.625 g/ha [12]: 0%; pest or weed control at 62.5 g/ha [12]: 0%; pest or weed control at 250 g/ha [12]: 0%
3 | CN1C[C@@H](c2ccc(C(F)(F)F)cc2)[C@H](C(=O)Nc2cc(C(F)(F)F)[nH]n2)C1=O (racemic) [Compound 1530] | 0 | 0 | 0 | 0 | 0 | 0 | 0 | 0 | 0 | 0 | 0 | 0 | 0 | 0 | 0 | 0 | 0 | 0 | 0 | 0 | pest or weed control at 250 g/ha [7]: 0%; pest or weed control at 15.625 g/ha [8]: 0%; pest or weed control at 62.5 g/ha [8]: 0%; pest or weed control at 250 g/ha [8]: 0%; plant injury at 15.625 g/ha [9]: 0%; plant injury at 62.5 g/ha [9]: 0%; plant injury at 250 g/ha [9]: 0%; pest or weed control at 15.625 g/ha [10]: 0%; pest or weed control at 62.5 g/ha [10]: 0%; pest or weed control at 250 g/ha [10]: 0%; pest or weed control at 15.625 g/ha [11]: 0%; pest or weed control at 62.5 g/ha [11]: 0%; pest or weed control at 250 g/ha [11]: 0%; pest or weed control at 15.625 g/ha [12]: 0%; pest or weed control at 62.5 g/ha [12]: 0%; pest or weed control at 250 g/ha [12]: 0%
